Test results from paper PMC4312240 (Bioorganic & medicinal chemistry, 2014).

What was measured:
HIV = conditions: in words; cited from earlier work
HBV [1] = conditions: in words; cited from earlier work
HBV [2] = test: Anti-HBV activity in HepG2 cells; format: cell-based; conditions: for Anti-HBV potency compared with DAPD prodrug 5: comparison in words

(−)-β-D-(2R,4R)-1,3-dioxolane-2-amino-6-aminopropyl purine nucleoside phosphoramidate prodrug [Compound 4]
Activity against HIV (HIV): submicromolar
Activity against HBV (HBV [1]): submicromolar

(2S)-Ethyl 2-(((((2R,4R)-4-(2-amino-6-tetradecanamido-9H-purin-9-yl)-1,3-dioxolan-2-yl)methoxy)(phenoxy)phosphoryl)amino)propanoate [Compound 10g]
Anti-HBV potency compared with DAPD prodrug 5 (HBV [2]): in the same range as DAPD prodrug 5

(2S)-Ethyl 2-(((((2R,4R)-4-(2-amino-6-palmitamido-9H-purin-9-yl)-1,3-dioxolan-2-yl)methoxy)(phenoxy)phosphoryl)amino)propanoate [Compound 10h]
Anti-HBV potency compared with DAPD prodrug 5 (HBV [2]): in the same range as DAPD prodrug 5

(2S)-ethyl 2-(((((2R,4R)-4-(2-amino-6-hydroxy-9H-purin-9-yl)-1,3-dioxolan-2-yl)methoxy)(phenoxy)phosphoryl)amino)propanoate [Compound 5]
Factor of increase in potency against HBV compared with DAPD (HBV [2]; ratio of EC50 values, DAPD vs prodrug): 40
